≈ marks a conversion by molar mass, not a printed value. Entries after “also recorded” stand apart in the source; their conditions may differ.
Key:
[1] = target: T1, P-gp drug efflux activity in A375 cells (Homo sapiens, UniProt P08183); experiment: Rhodamine 123 efflux assay, A375 cells; format: cell-based
T1 construct: endogenous in cells; host or cells: A375 human melanoma cells (ATCC)
Method: (§1) 5×10^5 cells from each subline were loaded with 50 ng/ml of rhodamine 123 for 30 minutes at 37° C. in medium. The cells were washed and resuspended in dye-staining agent free medium for 3 hours at 37° C. to allow rhodamine 123 efflux. The cells were then washed twice and the fluorescence of intracellular rhodamine 123 were analysed with Flow cytometer (residual fluorescence FRES). The fluorescence was compared with loaded cells maintained at 4° C. to prevent drug export (maximal fluorescence FMAX). […] Cells from each subline that were not being exposed to rhodamine 123 were used as negative controls.
(§2) Rhodamine 123 (Rh123) retention, a P-gp functional assay, was studied in all cell lines. This assay was performed by incubating cells with Rh123 and determining Rh123 accumulation by measuring its fluorescence. The maximum load of Rh123 (FMAX) was quantified at the end of treatment harvesting the cells and storing them at 4° C. to prevent any active Rh123 efflux . The P-gp drug efflux was allowed incubating Rh123-loaded cells in fresh new medium Rh123-free for 3 hours at 37° C. After this incubation, residual fluorescence (FRES) was measured and compared to FMAX.

[2] = system: A375 cells; experiment: Metabolic (MEK/ERK/p38MAPK) inhibitor signalling study by flow cytometry, A375; format: cell-based, human; conditions: U0126 30 μM; for prevention of MRE3008F20-induced accumulation in G2/M: MRE3008F20 10 μM
[3] = system: Jurkat cells; experiment: Flow cytometry (PI) G2/M accumulation and sub-G1 apoptosis, Jurkat; format: cell-based, human; conditions: MRE3008F20 10 μM
Method: (§3) A375 and NCTC2544 adherent cells were trypsinized, mixed with floating cells, washed with PBS and permeabilised in 70% (vol/vol) ethanol/PBS solution at 4° C. for at least 24 hours. Jurkat, HeL023 and PBMC cells were centrifuged for 10 minutes at 1000×g. The cell pellet was then resuspended and permeabilised in 70% (vol/vol) ethanol/PBS solution at 4° C. for at least 24 hours. The cells were washed with PBS and the DNA was stained with a PBS solution, containing 20 μg/ml of propidium iodide and 100 μg/ml of RNAse, at room temperature for 30 minutes. Cells were analysed by FACScan (Becton-Dickinson) and the content of DNA was evaluated by the Cell-LISYS program (Becton-Dickinson). Cell distribution among cell cycle phases and apoptotic cells was evaluated as previously described (Secchiero et al., 2001). Briefly, the cell cycle distribution is shown as the percentage of cells containing 2n (G1 phase), 4n (G2 and M phases), 4n>x>2n. DNA amount (S phase) judged by propidium iodide staining. The apoptotic population is the percentage of cells with DNA content lower than 2n.
(§4) To verify the role of A3 receptor antagonists on paclitaxel and vindesine mediated alteration of cell proliferation and apoptosis, testing was performed with additional cell lines. […] Experimental conditions are similar to those for the A375 cell testing.

[4] = target: T2, P-gp drug efflux activity in HeL023 cells (Homo sapiens, UniProt P08183); experiment: Rhodamine 123 efflux assay, HeL023 cells; format: cell-based; conditions: Rh123 efflux, concentrations of Table 11 (MRE3008F20 10 μM)
T2 construct: nearly all (100±1%) the cells expressing high level of functional P-gp; endogenous in cells; host or cells: HeL023 human erythroleukemia cells
Method: as §1, §2

[5] = system: A375 cells; experiment: Flow cytometry (PI) G2/M accumulation and sub-G1 apoptosis, A375; format: cell-based, human
Method: as §3
Cell proliferation and apoptosis are quantified by flow cytometer analysis after propidium-iodide (PI) DNA staining.

[6] = target: T3, rA1 adenosine receptor (Rattus norvegicus, UniProt P25099); experiment: Binding affinity at rA1 adenosine receptor
T3 sequence (P25099 1-326): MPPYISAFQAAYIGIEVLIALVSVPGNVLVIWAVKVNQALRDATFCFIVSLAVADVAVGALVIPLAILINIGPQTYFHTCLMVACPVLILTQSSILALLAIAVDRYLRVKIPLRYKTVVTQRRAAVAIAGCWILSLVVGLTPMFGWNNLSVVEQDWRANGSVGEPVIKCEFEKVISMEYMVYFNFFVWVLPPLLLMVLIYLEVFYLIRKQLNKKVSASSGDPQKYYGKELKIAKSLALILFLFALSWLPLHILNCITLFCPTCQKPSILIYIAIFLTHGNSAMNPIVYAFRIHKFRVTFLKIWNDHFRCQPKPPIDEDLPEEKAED

[7] = system: HeL023 cells; experiment: Flow cytometry (PI) G2/M accumulation and sub-G1 apoptosis, HeL023; format: cell-based, human; conditions: MRE3008F20 10 μM
Method: as §3, §4

[8] = system: NCTC2544 cells; experiment: Flow cytometry (PI) G2/M accumulation and sub-G1 apoptosis, NCTC2544; format: cell-based, human; conditions: NCTC 2544; MRE3008F20 10 μM
Method: as §3, §4

[9] = system: A375 melanoma cells; experiment: Colony formation assay of A375 cells; format: cell-based, human
Method: FIG. 2 illustrates colony formation assay of A375 cells. Cells were treated with different drugs and colonies were counted after 7 days. The values represent the mean ±SEM of four independent experiments. D=DMSO (control); T=paclitaxel, 0.75 ng/ml; M=MRE 3008F20, 10 μM; C=CI-IB-MECA, 10 μM; TM=paclitaxel plus MRE 3008F20; TC=paclitaxel plus CI-IB-MECA treated cells. *P<0.01 TM versus T. Analysis was by ANOVA followed by Dunnett's test.;
Control plates received the same volume of DMSO alone. After 7 days of growth at 37° C. in humidified atmosphere containing 5% CO2, the cells were fixed with absolute methanol for 5′ and stained with 1/10 Giemsa/phosphate-buffered saline (PBS) staining solution for 10 minutes. Staining solution was removed and colonies of greater than 30 cells were scored as survivors. For each treatment, six individual wells were scored.
Colony formation assay experiments were performed on A375 melanoma cells treated with increasing concentration of paclitaxel (0.25-75 ng/ml). A3 stimulation is achieved with the selective agonist CI-IB-MECA while A3 blockade is obtained with the selective antagonist MRE 3008F20. […] (FIG. 2)

[10] = system: human lung carcinoma SKMES; experiment: MTT growth inhibitory assay, SKMES; format: cell-based
[11] = system: human pancreatic cancer Panc-1; experiment: MTT growth inhibitory assay, Panc-1; format: cell-based
[12] = system: human melanoma A375 cell line; experiment: MTT growth inhibitory assay, A375; format: cell-based
Method: (§5) One of the growth inhibitory assays is the MTT assay. Cells (1000-1500 cells/well) are seeded in a 96-well micro culture plate in a total volume of 100 μl/well. After overnight incubation in a humidified incubator at 37° C. with 5% CO2-95% air, chemotherapeutic drug solutions diluted with culture medium at various concentrations are added in the amount of 100 μl to each well. The plates are placed in a humidified incubator at 37° C. with 5% CO2-95% air for 7-10 days. The plates are then centrifuged briefly and 100 μl of the growth medium is removed. Cell cultures are incubated with 50 μl of MTT [3-(4,5-dimethylthiazol-2-yl)-2,5-diphenyl-tetrazolium bromide] reagent (1 mg/ml in Dulbecco's phosphate-buffered saline) for 4 hr at 37° C. The resultant purple formazan precipitate is solubilized with 200 μl of 0.04 N HCl in isopropanol. Absorbance is measured at a wavelength of 595 nm and at a reference wavelength of 655 nm using a Bio-Rad Model 3550 Microplate Reader. Preferably, all tests are run in duplicate for each dose level.
(§6) The EZED50 computer program estimates the concentration of agent that inhibits cell growth by 50% as compared to the control cells. This is termed the IC50 and is determined by curve fitting test data using the following four logistic equation. [formula]
(§7) Inhibitory assay testing is also used to determine enhanced therapeutic effects from combining A3 receptor antagonists with other tumor inhibiting agents. The inhibitory cell growth assays are run with and without selected concentrations of A3 receptor antagonists. An enhanced therapeutic effect is present when the IC50 of the tumor inhibiting agent is lower with the A3 receptor antagonist.
(§8) Quantitatively, the enhancement factor (EF) is calculated by dividing the IC50 value of the tumor inhibiting agent for a tumor cell line by the IC50 value of the agent with A3 receptor antagonist for the same cell line: [formula]

[13] = system: human colon carcinoma HT29 cell line; experiment: MTT growth inhibitory assay, HT29; format: cell-based
Method: as §5, §6, §7, §8

T2 sequence (P08183 whole entry): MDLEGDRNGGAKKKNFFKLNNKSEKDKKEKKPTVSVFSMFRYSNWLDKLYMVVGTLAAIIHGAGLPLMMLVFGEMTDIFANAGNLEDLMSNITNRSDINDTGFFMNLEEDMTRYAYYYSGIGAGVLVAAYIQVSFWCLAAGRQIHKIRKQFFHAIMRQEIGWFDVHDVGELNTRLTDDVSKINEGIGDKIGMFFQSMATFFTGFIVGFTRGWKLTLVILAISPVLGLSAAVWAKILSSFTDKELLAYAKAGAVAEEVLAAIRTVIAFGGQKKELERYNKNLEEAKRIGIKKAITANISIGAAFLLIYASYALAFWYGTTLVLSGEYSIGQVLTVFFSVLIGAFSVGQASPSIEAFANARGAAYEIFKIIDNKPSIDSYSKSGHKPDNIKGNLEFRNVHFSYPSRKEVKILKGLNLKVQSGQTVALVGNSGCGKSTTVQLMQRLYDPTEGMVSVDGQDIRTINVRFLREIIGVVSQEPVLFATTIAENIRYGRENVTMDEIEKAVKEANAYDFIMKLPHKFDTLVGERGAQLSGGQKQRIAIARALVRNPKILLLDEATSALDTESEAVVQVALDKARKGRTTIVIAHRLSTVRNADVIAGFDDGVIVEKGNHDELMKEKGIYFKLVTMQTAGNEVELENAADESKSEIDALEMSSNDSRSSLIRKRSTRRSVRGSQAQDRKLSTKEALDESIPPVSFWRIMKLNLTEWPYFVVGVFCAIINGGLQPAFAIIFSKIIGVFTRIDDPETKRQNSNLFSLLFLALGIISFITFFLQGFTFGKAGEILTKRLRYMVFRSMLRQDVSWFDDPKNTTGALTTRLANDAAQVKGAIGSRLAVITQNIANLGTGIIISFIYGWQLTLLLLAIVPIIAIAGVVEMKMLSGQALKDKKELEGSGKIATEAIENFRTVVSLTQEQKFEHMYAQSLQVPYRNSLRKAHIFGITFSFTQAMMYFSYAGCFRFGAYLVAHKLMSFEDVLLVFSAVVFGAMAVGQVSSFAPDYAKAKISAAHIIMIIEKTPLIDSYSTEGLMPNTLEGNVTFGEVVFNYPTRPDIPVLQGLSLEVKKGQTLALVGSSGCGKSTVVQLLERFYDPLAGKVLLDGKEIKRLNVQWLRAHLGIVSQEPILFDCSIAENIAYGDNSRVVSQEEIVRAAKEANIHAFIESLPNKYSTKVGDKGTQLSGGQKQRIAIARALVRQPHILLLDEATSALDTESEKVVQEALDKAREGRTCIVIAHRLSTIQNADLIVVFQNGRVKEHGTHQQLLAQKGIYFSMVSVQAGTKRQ
T1 sequence (P08183 whole entry): as above

## N#CC(=C(/N)Sc1ccccc1N)/C(C#N)=C(\N)Sc1ccccc1N [U0126]
[1]; U0126 30 μM for 30 minutes, then MRE3008F20 10 μM
  effect on MRE 3008F20 blockade of P-gp (in words): failed to prevent MRE 3008F20 blockade of P-gp
[2]; PD98059 20 μM, SB203580 1 μM
  effect on G2/M accumulation rate of paclitaxel or vindesine alone (in words): did not alter
[2]; in presence of paclitaxel
  prevention of MRE3008F20-induced accumulation in G2/M: 23±5%
[2]; in presence of vindesine 1 nM
  prevention of MRE3008F20-induced accumulation in G2/M: 48±5%
[2]; paclitaxel 25 ng/ml, PD98059 20 μM, SB203580 1 μM
  reduction of apoptosis induced by paclitaxel: 73±10%

## CCCn1cc2c(nc(NC(=O)Nc3ccc(OC)cc3)n3nc(-c4ccco4)nc23)n1 [MRE3008F20]
[3]
  paclitaxel ECMAX with A3 antagonist: 2.29 ± 0.31 ng/mL
[1]; 10 μM, FRES comparable to FMAX
  blockade of P-gp mediated Rh123 transport (in words): completely blockade of P-gp mediated Rh123 transport
[4]
  inhibition of P-gp activity (in words): near total P-gp inhibition; also recorded: strong inhibitors of P-gp activity
[5]; A375, MRE3008F20 10 μM
  paclitaxel ECMAX with A3 antagonist: 3.04 ± 0.32 ng/mL
  vindesine ECMAX with A3 antagonist: 1.66 ± 0.20 nM
[5]; Homo sapiens, A-375, read-out: SEC50 (dose inducing 50% of the enhancing activity to vindesine)
  EC50: 550 ± 60 nM
[6]
  Ki: > 10000 nM
[7]
  paclitaxel ECMAX with A3 antagonist: 3.19 ± 0.30 ng/mL
  vindesine ECMAX with A3 antagonist: 1.05 ± 0.09 nM
[8]
  paclitaxel ECMAX with A3 antagonist: 2.55 ± 0.24 ng/mL
  vindesine ECMAX with A3 antagonist: 1.34 ± 0.15 nM
[9]; 10 μM alone, 7 days
  colony formation, % of DMSO control: 59%
[9]; MRE 3008F20 10 μM plus paclitaxel 0.75 ng/ml
  colony formation predicted by geometrical combination: 38%
[10]; Human Lung Carcinoma SKMES, read-out: IC50 growth inhibition, agent used separately
  IC50: 19 ± 1.2 µg/mL (≈ 43.9 µM)
[10]; SKMES, A3 antagonist 1 μg/ml
  Enhancement Factor for docetaxel: 3.6
  Enhancement Factor for irinotecan HCL: 2.1
  Enhancement Factor for paclitaxel: 4.1
  Enhancement Factor for vinblastine: 1.2
[11]; Human Pancreatic Cancer Panc-1, read-out: IC50 growth inhibition, agent used separately
  IC50: 15.8 ± 13.5 µg/mL (≈ 36.5 µM)
[11]; Panc-1, A3 antagonist 1 μg/ml
  Enhancement Factor for docetaxel: 1.8
  Enhancement Factor for paclitaxel: 1.9
[12]; A375, A3 antagonist 1 μg/ml
  Enhancement Factor for docetaxel: 63.3
  Enhancement Factor for paclitaxel: 7.1
[12]; A375, A3 antagonist 3 μg/ml
  Enhancement Factor for docetaxel: 6.9
  Enhancement Factor for paclitaxel: 6.4
[12]; A375, A3 antagonist 10 μg/ml
  Enhancement Factor for docetaxel: 5.3
[12]; A375, A3 antagonist 10 μg/ml, paclitaxel 0.0001-0.05 μg/ml
  Enhancement Factor for paclitaxel: 7.1
[12]; A375, A3 antagonist 1, 3 and 10 μg/ml
  enhancement factor for paclitaxel at all three concentrations: 6.4-7.1
[12]; Homo sapiens, A-375, Human Melanoma A375, read-out: IC50 growth inhibition, agent used separately
  IC50: 91.3 ± 1.5 µg/mL (≈ 211 µM)
[12]; Homo sapiens, A-375, A375, 10 μg/ml, read-out: growth inhibition in the presence of A3 antagonist alone
  inhibition at 10 µg/mL: 30 to 45%
[13]; HT29, A3 antagonist 1 μg/ml
  Enhancement Factor for docetaxel: 15.0
  Enhancement Factor for doxorubicin: 1.6
  Enhancement Factor for irinotecan HCl: 1.8
  Enhancement Factor for paclitaxel: 2.9
[13]; HT-29, Human Colon Carcinoma HT29, read-out: IC50 growth inhibition, agent used separately
  IC50: 39.4 ± 7.7 µg/mL (≈ 91.1 µM)
